Where two headings read alike, the source gives them in different places.
Columns and labels:
[1] = system: amphetamine-induced rotation vs. avoidance acquisition; test: R/A ratio: ED50 amphetamine-induced rotation / ED50 avoidance acquisition; format: in vivo, rat
Experimental: (§1) To predict the potential ability of a drug to cause EPS, the ratio of its ED50 (i.p.) for antagonism of amphetamine-induced rotation to its ED50 (i.p.) for blockade of shock avoidance acquisition in the rat, a procedure for assessing antipsychotic activity, (R/A ratio) is calculated.

[2] = system: shock avoidance acquisition in the rat; test: Antagonism of shock avoidance acquisition in the rat (antipsychotic activity); format: in vivo; conditions: ip, read-out: Antagonism of Avoidance Acquisition, Rats, ED50 (A)
Experimental: as §1

[3] = system: striatal dopamine receptors; test: Antagonism of amphetamine-induced rotation in rats with unilateral substantia nigra lesions (Ungerstedt); format: in vivo, rat; conditions: i.p.
Excerpt: There is evidence that antipsychotic drugs cause EPS by interfering with neurotransmission in a nigrostriatal dopaminergic pathway. It is thought that they block dopamine receptors in the neostriatum. Therefore, the ability of a drug to block striatal dopamine receptors is a measure of its EPS liability.
To assess the potency of drugs in blocking striatal dopamine receptors a procedure was used which was developed by Ungerstedt [Ungerstedt and Arbuthnott, Brain Res. 24 485 (1970); Ungerstedt, Acta physiol. scand., Suppl. 367, 49 (1971)] using rats with unilateral lesions of the substantia nigra induced by injection of 6-hydroxydopamine. This treatment causes degeneration of the nigrostriatal dopaminergic pathway accompanied by a marked decrease in the dopamine content of the neostriatum on the side of the lesion. Animals with this lesion develop postural and motor asymmetries which are altered by drugs which affect dopaminergic activity. Amphetamine, which releases dopmine and norepinephrine from catecholaminergic neurons, causes these rats to rotate unidirectionally toward the side of the lesion. Since there is a much larger amount of dopamine to be released by amphetamine from the intact nigrostriatal neurons on the non-lesioned side than from those remaining on the lesioned side, the rotational behavior is apparently due to the preponderance of activation of striatal dopamine receptors on the intact side. The ability of a drug to antagonize the rotational behavior is therefore a measure of its ability to block striatal dopamine receptors and is indicative of its potential to produce EPS.
as §1

[4] = ratio of i.p. ED50 values in rats, piperidylidene derivatives (Table II)
[5] = rats, i.p., piperidylidene derivatives (Table II)
[6] = piperidylidene derivatives (Table II)
[7] = ratio of i.p. ED50 values in rats, clinically established antipsychotics (Table I)
[8] = clinically established antipsychotics (Table I)

OCCN1CCC(=C2c3ccccc3Sc3ccc(Cl)cc32)CC1 [IX, 4-(2-chloro-9-thioxanthenylidene)-1-(β-hydroxyethyl)piperidine] was tested, and the R/A ratio [1, 4] was 4.7, the ED50 [2, 5] was 0.26 mg/kg and the “Antagonism of Amphetamine-induced Rotation, Rats, ED50 (R)” value (shortened to “Antagonism”) [3, 6] was 1.22 mg/kg.

CN(C)CCCN1c2ccccc2Sc2ccc(Cl)cc21 [Chlorpromazine, reference compound] was tested, and the R/A ratio [1, 7] was 1.3 and the “Antagonism” value [3, 8] was 2.0 mg/kg.

With CN1CCC(=C2c3ccccc3Sc3ccc(F)cc32)CC1 [XII, 4-(2-fluoro-9-thioxanthenylidene)-1-methylpiperidine] the R/A ratio [1, 4] was 3.1, the ED50 [2, 5] was 1.8 mg/kg and the “Antagonism” value [3, 6] was 5.5 mg/kg.

OCCCN1CCC(=C2c3ccccc3Oc3ccc(Cl)cc32)CC1 [XXX, 4-(2-chloro-9-xanthenylidene)-1-(3-hydroxypropyl)-piperidine] was tested, and the R/A ratio [1, 4] was 3.9, the ED50 [2, 5] was 0.2 mg/kg and the “Antagonism” value [3, 6] was 0.78 mg/kg.

CN1CCC(=C2c3ccccc3COc3cc(Cl)ccc32)CC1 [XXXIII, 4-(3-chloro-11(6H)-dibenz[b,e]oxepinylidene)-1-methylpiperidine] was tested, and the R/A ratio [1, 4] was > 3, the ED50 [2, 5] was 7.5 mg/kg and the “Antagonism” value [3, 6] was > 25 mg/kg.

Clc1ccc2c(c1)C(=C1CCN(CC3CCC3)CC1)c1ccccc1O2 [XXIV, 4-(2-chloro-9-xanthenylidene)-1-cyclobutylmethylpiperidine] was tested, and the R/A ratio [1, 4] was 3.2, the ED50 [2, 5] was 0.5 mg/kg and the “Antagonism” value [3, 6] was 1.6 mg/kg.

CN1CCC(=C2c3ccc(Cl)cc3Oc3ccc(F)cc32)CC1 [XVI, 4-(6-chloro-2-fluoro-9-xanthenylidene)-1-methylpiperidine] was tested, and the R/A ratio [1, 4] was 7.5, the ED50 [2, 5] was 0.15 mg/kg and the “Antagonism” value [3, 6] was 1.12 mg/kg.

For O=c1[nH]c2ccccc2n1C1CCN(CCCC(c2ccc(F)cc2)c2ccc(F)cc2)CC1 [Pimozide, reference compound], the R/A ratio [1, 7] was 0.30 and the “Antagonism” value [3, 8] was 0.08 mg/kg.

In the case of CN1CCC(=C2c3ccccc3Sc3cc(F)ccc32)CC1 [XIII, 4-(3-fluoro-9-thioxanthenylidene)-1-methylpiperidine], the R/A ratio [1, 4] is reported as 5.8, the ED50 [2, 5] is reported as 3 mg/kg and the “Antagonism” value [3, 6] is reported as 17.7 mg/kg.

In the case of CN1CCC(=C2c3ccccc3Oc3ccc(C#N)cc32)CC1 [XI, 4-(2-cyano-9-xanthenylidene)-1-methylpiperidine], the R/A ratio [1, 4] is reported as 3.2, the ED50 [2, 5] is reported as 0.09 mg/kg and the “Antagonism” value [3, 6] is reported as 0.29 mg/kg.

CN1CCC(=C2c3ccccc3Sc3cc(Cl)ccc32)CC1 [III, 4-(3-chloro-9-thioxanthenylidene)-1-methylpiperidine] was tested, and the R/A ratio [1, 4] was 5.8, the ED50 [2, 5] was 5.3 mg/kg and the “Antagonism” value [3, 6] was 30.8 mg/kg.

CN1CCC(=C2c3ccccc3Sc3ccc(Cl)cc32)CC1 [I, 4-(2-chloro-9-thioxanthenylidene)-1-methylpiperidine] was tested, and the R/A ratio [1, 4] was 20.3, the ED50 [2] was 0.7 mg/kg and the “Antagonism” value [3, 6] was 14.2 mg/kg.

CN1CCC(=C2c3ccccc3Oc3ccc(Cl)cc32)CC1 [IV, 4-(2-chloro-9-xanthenylidene)-1-methylpiperidine] was tested, and the R/A ratio [1, 4] was 12.2, the ED50 [2, 5] was 0.23 mg/kg and the “Antagonism” value [3, 6] was 2.8 mg/kg.

CN1CCC(=C2c3ccc(F)cc3Sc3ccc(F)cc32)CC1 [XXIX, 4-(2,6-difluoro-9-thioxanthenylidene)-1-methylpiperidine] was tested, and the R/A ratio [1, 4] was 4.8, the ED50 [2, 5] was 0.5 mg/kg and the “Antagonism” value [3, 6] was 2.4 mg/kg.

O=C(CCCN1CCC(O)(c2ccc(Cl)cc2)CC1)c1ccc(F)cc1 [Haloperidol, reference compound] was tested, and the R/A ratio [1, 7] was 0.31 and the “Antagonism” value [3, 8] was 0.05 mg/kg.

In the case of CSc1ccc2c(c1)C(=C1CCN(C)CC1)c1ccccc1O2 [V, 1-methyl-4-(2-methylthio-9-xanthenylidene)piperidine], the R/A ratio [1, 4] is reported as 3.0, the ED50 [2, 5] is reported as 0.6 mg/kg and the “Antagonism” value [3, 6] is reported as 1.8 mg/kg.

In the case of CN1CCC(=C2c3ccccc3Sc3ccc(C#N)cc32)CC1 [XXVIII, 4-(2-cyano-9-thioxanthenylidene)-1-methylpiperidine], the R/A ratio [1, 4] is reported as 4.0, the ED50 [2, 5] is reported as 0.16 mg/kg and the “Antagonism” value [3, 6] is reported as 0.67 mg/kg.

CN1CCC(=C2c3ccccc3COc3ccc(Cl)cc32)CC1 [VII, 4-(2-chloro-11(6H)-dibenz[b,e]oxepinylidene)-1-methylpiperidine] was tested, and the R/A ratio [1, 4] was 5.5, the ED50 [2, 5] was 1.7 mg/kg and the “Antagonism” value [3, 6] was 9.4 mg/kg.

CN1CCC(=C2c3ccccc3Oc3ccc(C(F)(F)F)cc32)CC1 [VI, 1-methyl-4-(2-trifluoromethyl-9-xanthenylidene)-piperidine] was tested, and the R/A ratio [1, 4] was 3.7, the ED50 [2, 5] was 0.07 mg/kg and the “Antagonism” value [3, 6] was 0.26 mg/kg.

For CSc1ccc2c(c1)C(=C1CCN(C)CC1)c1ccccc1S2 [II, 1-methyl-4-(2-methylthio-9-thioxanthenylidene)-piperidine], the R/A ratio [1, 4] was 18.5, the ED50 [2] was 0.2 mg/kg and the “Antagonism” value [3, 6] was 3.7 mg/kg.

CCCCN1CCC(=C2c3ccccc3Oc3ccc(C(F)(F)F)cc32)CC1 [XXXI, 4-(2-trifluoromethyl-9-xanthenylidene)-1-n-butylpiperidine] was tested, and the R/A ratio [1, 4] was 10, the ED50 [2, 5] was 0.1 mg/kg and the “Antagonism” value [3, 6] was 1 mg/kg.

With OCCN1CCC(=C2c3ccccc3Oc3ccc(Cl)cc32)CC1 [XXII, 4-(2-chloro-9-xanthenylidene)-1-(β-hydroxyethyl)-piperidine] the R/A ratio [1, 4] was 6.5, the ED50 [2, 5] was 0.2 mg/kg and the “Antagonism” value [3, 6] was 1.3 mg/kg.

In the case of CCN1CCC(=C2c3ccccc3Oc3ccc(Cl)cc32)CC1 [XXI, 4-(2-chloro-9-xanthenylidene)-1-ethylpiperidine], the R/A ratio [1, 4] is reported as 3.6, the ED50 [2, 5] is reported as 0.5 mg/kg and the “Antagonism” value [3, 6] is reported as 1.8 mg/kg.

In the case of CN1CCC(=C2c3cc(Cl)ccc3COc3ccccc32)CC1 [XXVII, 4-(9-chloro-11(6H)-dibenz[b,e]oxepinylidene)-1-methylpiperidine], the R/A ratio [1, 4] is reported as > 15, the ED50 [2, 5] is reported as 1.6 mg/kg and the “Antagonism” value [3, 6] is reported as > 24 mg/kg.

Brc1ccc2c(c1)C(=C1CCNCC1)c1ccccc1O2 [XXV, 4-(2-bromo-9-xanthenylidene)-piperidine] was tested, and the R/A ratio [1, 4] was 6.7, the ED50 [2, 5] was 0.6 mg/kg and the “Antagonism” value [3, 6] was 4.0 mg/kg.

CN1CCC(=C2c3ccccc3Oc3ccc(Br)cc32)CC1 [X, 4-(2-bromo-9-xanthenylidene)-1-methylpiperidine] was tested, and the R/A ratio [1, 4] was 5.3, the ED50 [2, 5] was 0.3 mg/kg and the “Antagonism” value [3, 6] was 1.6 mg/kg.

With CCCN1CCC(=C2c3ccccc3Oc3ccc(Cl)cc32)CC1 [XXIII, 4-(2-chloro-9-xanthenylidene)-1-n-propylpiperidine] the R/A ratio [1, 4] was 4.0, the ED50 [2, 5] was 0.6 mg/kg and the “Antagonism” value [3, 6] was 2.4 mg/kg.

Molecule CN1CCN(CCCN2c3ccccc3Sc3ccc(C(F)(F)F)cc32)CC1 [Trifluoperazine, reference compound] has a R/A ratio [1, 7] of 0.46.

For Clc1ccc2c(c1)C(=C1CCNCC1)c1ccccc1O2 [XX, 4-(2-chloro-9-xanthenylidene)-piperidine], the R/A ratio [1, 4] was 4.8, the ED50 [2, 5] was 1.7 mg/kg and the “Antagonism” value [3, 6] was 8.1 mg/kg.

In the case of CCN1CCC(=C2c3ccccc3Sc3ccc(Cl)cc32)CC1 [XVII, 4-(2-chloro-9-thioxanthenylidene)-1-ethylpiperidine], the R/A ratio [1, 4] is reported as 10.0, the ED50 [2, 5] is reported as 0.5 mg/kg and the “Antagonism” value [3, 6] is reported as 5.0 mg/kg.

In the case of Clc1ccc2c(c1)C(=C1CCN(CC3CCC3)CC1)c1ccccc1S2 [XIX, 4-(2-chloro-9-thioxanthenylidene)-1-cyclobutylmethylpiperidine], the R/A ratio ([1]; rat, in vivo, ip) is reported as 3.8, the ED50 [2, 5] is reported as 0.5 mg/kg and the “Antagonism” value [3, 6] is reported as 1.9 mg/kg.

OCCN1CCC(=C2c3ccccc3Oc3ccc(Br)cc32)CC1 [XXVI, 4-(2-bromo-9-xanthenylidene)-1-(β-hydroxyethyl)-piperidine] was tested, and the R/A ratio [1, 4] was 3.5, the ED50 [2, 5] was 0.6 mg/kg and the “Antagonism” value [3, 6] was 2.1 mg/kg.

CCCCN1CCC(=C2c3ccccc3Oc3ccc(Br)cc32)CC1 [XXXII, 4-(2-bromo-9-xanthenylidene)-1-n-butylpiperidine] was tested, and the R/A ratio [1, 4] was 5.0, the ED50 [2, 5] was 0.6 mg/kg and the “Antagonism” value [3, 6] was 3.0 mg/kg.

In the case of CN1CCC(=C2c3ccccc3Sc3ccc(Br)cc32)CC1 [XIV, 4-(2-bromo-9-thioxanthenylidene)-1-methylpiperidine], the R/A ratio [1, 4] is reported as 9.0, the ED50 [2, 5] is reported as 0.3 mg/kg and the “Antagonism” value [3, 6] is reported as 2.7 mg/kg.

CN1CCC(=C2c3ccccc3Oc3ccc(F)cc32)CC1 [VIII, 4-(2-fluoro-9-xanthenylidene)-1-methylpiperidine] was tested, and the R/A ratio [1, 4] was 7.9, the ED50 [2, 5] was 0.71 mg/kg and the “Antagonism” value [3, 6] was 5.6 mg/kg.
